{"source": "paper PMC3253113", "about": "“Presenilin Is the Molecular Target of Acidic γ-Secretase Modulators in Living Cells” (PLoS ONE, 2012)", "key": {"PSEN1-NTF [1]": {"molecular_target": "T1, PSEN1-NTF (Homo sapiens, UniProt P49768)", "details": "N2a-ANPP membranes, cell-free, 0.5 µM AR243 co-incubated with 100 µM competitor"}, "Aβ42 levels": {"test_system": "Aβ42 levels", "test": "Aβ42-lowering activity in PS70 cells, sandwich ELISA of conditioned media", "details": "CHO, 24 h, read-out: IC50 (Aβ42), Aβ42-lowering activity"}, "N2a-ANPP cells": {"test_system": "N2a-ANPP cells", "test": "Cell viability, alamarBlue reagent", "assay_type": "cell-based", "method": "Cell viability was assessed using the alamarBlue® reagent (Invitrogen). N2a-ANPP cells were seeded at low density in 96-well plates (4000 cells/well) and cultured for 24 h. The cells were then treated in duplicates with increasing concentrations of the respective compounds or DMSO as vehicle for an additional 24 h. 20 µl alamarBlue® was added to cells cultured in 200 µl medium and incubated overnight. Absorbance was measured with a Paradigm™ microplate reader at 570 nm, using 600 nm as the reference wavelength, and percent viability of vehicle control was calculated."}, "PSEN1-NTF [2]": {"molecular_target": "T1, PSEN1-NTF", "test": "Competition of photo-probe AR243 binding, HEK293T membrane preparations", "details": "HEK293T membranes, excess of competitor (100 µM)"}, "PSEN1-CTF [3]": {"molecular_target": "T2, PSEN1-CTF (Homo sapiens, UniProt P49768)", "test": "Photo-affinity labeling in vitro, N2a-ANPP membrane preparations", "assay_type": "binding", "details": "N2a-ANPP membranes, 0.25% CHAPSO, 0.5 µM photo-probe, UV"}, "APH-1": {"molecular_target": "APH-1 (Homo sapiens, UniProt Q96BI3)", "test": "Photo-affinity labeling in vitro, N2a-ANPP membrane preparations", "assay_type": "binding", "details": "N2a-ANPP membranes, 0.25% CHAPSO, 0.5 µM photo-probe, UV"}, "PEN-2": {"molecular_target": "PEN-2 (Homo sapiens, UniProt Q9NZ42)", "test": "Photo-affinity labeling in vitro, N2a-ANPP membrane preparations", "assay_type": "binding", "details": "N2a-ANPP membranes, 0.25% CHAPSO, 0.5 µM photo-probe, UV"}, "Nicastrin": {"molecular_target": "Nicastrin (Homo sapiens, UniProt Q92542)", "test": "Photo-affinity labeling in vitro, N2a-ANPP membrane preparations", "assay_type": "binding", "details": "N2a-ANPP membranes, 0.25% CHAPSO, 0.5 µM photo-probe, UV"}, "endogenous PSEN1-NTF": {"molecular_target": "T3, endogenous PSEN1-NTF (Homo sapiens, UniProt P49768)", "T3 construct": "host or cells: HEK293T membrane preparations", "test": "Photo-affinity labeling in vitro, HEK293T membrane preparations", "assay_type": "binding"}, "PSEN1-CTF [4]": {"molecular_target": "T2, PSEN1-CTF", "test": "Photo-affinity labeling in living N2a-ANPP cells", "assay_type": "cell-based", "details": "live N2a-ANPP cells, 0.2 µM photo-probe, UV 365 and 302 nm", "method": "(§1) Subsequently, cells were UV-irradiated on ice for 30 min at 365 nm and for 30 min at 302 nm. As negative controls, UV irradiation was omitted or cells were incubated with DMSO vehicle or compound AR80, which was structurally identical to AR243 but lacked the biotin moiety. Cells were washed and harvested in PBS and incubated with hypotonic buffer (10 mM Tris pH 7.4, 1x protease inhibitor mix) for 10 min on ice. To prepare cellular membranes, cells were passed 10 times through a 30G needle and centrifuged at 800×g, 10 min, 4°C. The post-nuclear supernatant was centrifuged at 18.000×g, 45 min, 4°C. […] The total protein concentration of the membrane preparations was determined by BCA assay, concentrations and volumes of each sample were adjusted, and 5x RIPA buffer was added to a final concentration of 1x RIPA buffer (150 mM NaCl, 1.0% NP-40, 0.5% sodium deoxycholate, 0.1% SDS, […], pH 8.0). […] Protein concentrations were again determined and adjusted to equal levels prior to the addition of streptavidin magnetic beads (Invitrogen). […] The eluted material was separated on 12% Bis-Tris gels and analyzed by Western blotting. Chemiluminescence was recorded with a LAS 3000 ECL camera system (Fuji Photo Film GmbH, Duesseldorf, Germany) or on CL-XPosure film (Fisher Scientific GmbH, Schwerte, Germany)."}, "PSEN1-NTF [5]": {"molecular_target": "T1, PSEN1-NTF", "test": "Photo-affinity labeling in living N2a-ANPP cells", "assay_type": "cell-based", "details": "live N2a-ANPP cells, 0.2 µM photo-probe, UV 365 and 302 nm", "method": "as §1"}, "PSEN1-CTF [6]": {"molecular_target": "T2, PSEN1-CTF", "test": "Photo-affinity labeling in vitro, HEK293T membrane preparations", "assay_type": "binding", "set-up": "host or cells: HEK293T membrane preparations", "method": "as §1, with “Germany). […]” for “Germany).”"}, "Aβ38 levels": {"test_system": "Aβ38 levels", "test": "Aβ38 levels in PS70 cells, sandwich ELISA of conditioned media", "details": "CHO cells with wild type APP and PSEN1, increasing concentrations"}}, "note": "Entries after “also recorded” stand apart in the source; their conditions may differ. Where two headings read alike, the source gives them in different places.", "data": [{"compound": "CCOc1cc(C)c(Nc2ccnc(N3CCN(c4ccc(OC)cc4)C(C)(C)C3)n2)cc1C(C)C", "note": "[Compound 2]", "values": [{"measurement": "Competition of AR243 binding to PSEN1-NTF", "setting": "PSEN1-NTF [1]", "value": "only partially competed"}, {"measurement": "Competition of AR243 binding to PSEN1-NTF", "setting": "PSEN1-NTF [1]; listed as compound 2", "value": "more modest reductions"}, {"measurement": "IC50", "setting": "Aβ42 levels", "value": 0.077, "unit": "µM"}]}, {"compound": "CC(C)CC(C(=O)O)c1cc(-c2ccc(C(F)(F)F)cc2)cc(-c2ccc(C(F)(F)F)cc2)c1", "note": "(centres unmarked) [JNJ-40418677]", "values": [{"measurement": "IC50", "setting": "Aβ42 levels", "value": 0.29, "unit": "µM"}]}, {"compound": "CC(C)C#CC(c1ccc(Cl)cc1)N1CCC(CC(=O)O)CC1c1ccc(C(F)(F)F)cc1", "note": "(centres unmarked) [BB25]", "values": [{"measurement": "Concentrations with dose-dependent cytotoxicity", "setting": "N2a-ANPP cells", "value": "> 10", "unit": "µM"}, {"measurement": "Competition of AR243 binding to PSEN1-NTF", "setting": "PSEN1-NTF [1]", "value": "efficiently reduced the labeling signal"}, {"measurement": "Displacement of AR243 from PSEN1-NTF", "setting": "PSEN1-NTF [2]", "value": "caused displacement of the photo-probe"}, {"measurement": "IC50", "setting": "Aβ42 levels", "value": 0.087, "unit": "µM"}]}, {"compound": "COc1cc(/C=C2\\CCCN([C@@H](C)c3ccc(F)cc3)C2=O)ccc1-n1cnc(C)c1", "note": "[E-2012]", "values": [{"measurement": "Competition of AR243 binding to PSEN1-NTF", "setting": "PSEN1-NTF [1]", "value": "more modest reductions; also recorded: only partially competed"}, {"measurement": "IC50", "setting": "Aβ42 levels", "value": 0.053, "unit": "µM"}]}, {"compound": "COc1cc(-c2cc(C)c(NC(C)c3ccc(F)cc3)nn2)ccc1-n1cnc(C)c1", "note": "(centres unmarked) [Compound 1]", "values": [{"measurement": "Competition of AR243 binding to PSEN1-NTF", "setting": "PSEN1-NTF [1]", "value": "reduced binding of the photo-probe as effectively as the acidic compound JNJ-40418677"}, {"measurement": "IC50", "setting": "Aβ42 levels", "value": 0.054, "unit": "µM"}]}, {"compound": "CC(C)C#CC(c1ccc(C2(C(F)(F)F)N=N2)cc1)N1CCC(CC(=O)O)CC1c1ccc(C(F)(F)F)cc1", "note": "(centres unmarked) [AR80]", "values": [{"measurement": "IC50", "setting": "Aβ42 levels", "value": 0.19, "unit": "µM"}]}, {"compound": "O=C(O)CC1CCN(C(C#CCCCCOC(=O)CCCC[C@@H]2SC[C@@H]3NC(=O)N[C@@H]32)c2ccc(C3(C(F)(F)F)N=N3)cc2)C(c2ccc(C(F)(F)F)cc2)C1", "note": "(stereo partly drawn) [AR243, 2-(1-(7-((5-((3aS,4S,6aR)-2-oxohexahydro-1H-thieno[3,4-d]imidazol-4-yl)pentanoyl)oxy)-1-(4-(3(trifluoromethyl)-3H-diazirin-3-yl)phenyl)hept-2-yn-1-yl)-2-(4(trifluoromethyl)phenyl)piperidin-4-yl)acetic acid]", "values": [{"measurement": "Photo-affinity labeling of PSEN1-CTF (Western blotting)", "setting": "PSEN1-CTF [3]", "value": "did not demonstrate binding"}, {"measurement": "Photo-affinity labeling of APH-1 (Western blotting)", "setting": "APH-1", "value": "did not demonstrate binding"}, {"measurement": "Photo-affinity labeling of PEN-2 (Western blotting)", "setting": "PEN-2", "value": "did not demonstrate binding"}, {"measurement": "Photo-affinity labeling of Nicastrin (Western blotting)", "setting": "Nicastrin", "value": "did not demonstrate binding"}, {"measurement": "Photo-affinity labeling of endogenous PSEN1-NTF (Western blotting)", "setting": "endogenous PSEN1-NTF", "value": "labeling of endogenous PSEN1-NFT"}, {"measurement": "Photo-affinity labeling of PSEN1-CTF in living cells (Western blotting)", "setting": "PSEN1-CTF [4]", "value": "did not demonstrate binding"}, {"measurement": "Photo-affinity labeling of PSEN1-NTF in living cells (Western blotting)", "setting": "PSEN1-NTF [5]", "value": "efficient labeling of PSEN1-NTF; also recorded: demonstrated binding of the photo-probe to PSEN1-NTF"}, {"measurement": "Photo-affinity labeling of PSEN1-CTF (Western blotting)", "setting": "PSEN1-CTF [6]", "value": "not PSEN1-CTF"}, {"measurement": "Effect on Aβ38 levels", "setting": "Aβ38 levels", "value": "concomitant increase in Aβ38 levels"}, {"measurement": "IC50", "setting": "Aβ42 levels", "value": 0.29, "unit": "µM"}]}]}
